Each block holds one compound with its values, some of them ahead of it.
What was measured:
[1] = tested on: subclinical mastitis; settings: known methods of treating mastitis of cows; cited from earlier work
[2] = tested on: mice; assay: Ear swelling test of mice, compared to Hostacortin H; format: in vivo
Protocol: Ear erythema was determined by visual inspection and detection of presence (+) or absence (−) signs.
The thickness of the control and experimental ear in all animals was measured with a micrometer. Performance measurements were summed (Σ) separately the right and left ears in groups. The percentage of ear swelling and activity series is calculated using the following formulas: […]

[3] = Solubility of hydro-colloid and chitosan; format: physicochemical
Protocol: Test solution: An adequate sample of Chitosan HCl, Chitosan-HAc, Chitosan, Chitosan-Valeric acid-Hydro Colloid and valeric acid, respectively was dissolved in the solvent above. This mixture was shacked and afterwards sonified in an ultrasonic bath for 5 min.
Sample: Chitosan suspended in water
Result: An acceptable solution of Chitosan in waterish or organic solvents like Methanol etc. is not possible. A suitable solubilization of Chitosan is only possible in stronger acids like HCl or HAc under production of Chitosan HCl or Chitosan HAc.

[4] = Dose 0.1 ml, right ear (allergen provocation site)

Compound: CCN(CC)CCOC(=O)c1ccc(N)cc1 [procaine]
recovery time [1]: 3 to 5 days

Compound: CC(=O)OCC(=O)[C@@]1(O)CC[C@H]2[C@@H]3CCC4=CC(=O)C=C[C@]4(C)[C@H]3[C@@H](O)C[C@@]21C [prednisolone-21-acetyl, prednisolone-21-acetate]
Antiallergic activity in Ear swelling test after 2 hours post challenge ([2]; Dose 0.1 ml): 14.2%
Antiallergic activity in Ear swelling test after 24 hours post challenge ([2]; Dose 0.1 ml): 17.5%
Antiallergic activity in Ear swelling test after 48 hours post challenge ([2]; Dose 0.1 ml): 10.7%
Σ Ear thickness after 2 hours post challenge, Left ([2]; Dose 0.1 ml, left ear): 335 μm
Σ Ear thickness after 24 hours post challenge, Left ([2]; Dose 0.1 ml, left ear): 330 μm
Σ Ear thickness after 48 hours post challenge, Left ([2]; Dose 0.1 ml, left ear): 326 μm
Σ Ear thickness after 2 hours post challenge, Right [2, 4]: 345 μm
Σ Ear thickness after 24 hours post challenge, Right [2, 4]: 360 μm
Σ Ear thickness after 48 hours post challenge, Right [2, 4]: 355 μm
inflammatory response in challenged mice ([2]; all stages of the experiment): positive dynamics of reducing inflammatory response

Solubility in water [3]: water insoluble
solution in waterish or organic solvents like Methanol [3]: not possible
Compound: chitosan

From patent publication US11173193B2, “Immunobiological products” (priority 2016, dated 2021)
